# Experimental data taken from patent publication US20250120989A1, “BRIDGED TRICYCLIC CARBAMOYLPYRIDONE COMPOUNDS AND USES THEREOF” (priority 2023, published 2025).
# Columns and labels:
# physchem = settings: FaSSIF, 23 °C, thermodynamic from solid
# in vitro = settings: human, uninfected MT-4 cells
# [1] = Dog PO pharmacokinetic studies with P-gp inhibitor encequidar mesylate (Example E); type: in vivo, beagle dog; settings: for AUCinf, CMAX and oral bioavailability when administered with encequidar mesylate versus without / AUC(0-inf) / Cmax / bioavailability: dosed compound measured; for AUCinf, CMAX and oral bioavailability when administered with encequidar mesylate versus without: Table 5 versus Table 4, FIG. 1 and 2; for AUC(0-inf) / Cmax / bioavailability: male, beagle, plasma, dog PO 4 mg/kg, encequidar mesylate 5 mg-eq/kg PO about 30 min before
# Method: Three male beagle dogs were fasted overnight. […] Individual doses were calculated based on body weights recorded on the day of dose administration. […] This was followed by an additional 20 mL of water administered via oral gavage. The total flush volume was approximately 30 mL. Individual doses were administered on a […]. In all cases, food was returned at approximately 4 hours after dosing. […] Bioanalysis was carried out according to Example C.
# HIV-1 (IIIB) = test: microbe, parasite or virus in culture; type: cell-based; settings: Human immunodeficiency virus 1, MT4, 120 h; HIV-1 (IIIB) replication in MT-4 cells, 5 days, Cell Titer Glo; read-out: MT4 EC50
"AUCinf, CMAX and oral bioavailability when administered with encequidar mesylate versus without ([1]; dog PO)",AUC(0-inf) [1] [µM·h],Cmax [1] [µM],bioavailability [1] [%],Compound,solubility thermodynamic at 24 h (physchem) [µg/mL],CC50 at 5 days (in vitro) [µM],"AUCinf, CMAX and oral bioavailability of Intermediate C when prodrug is administered with encequidar mesylate versus without ([1]; dog PO, Intermediate C measured, Table 5 Entry 3 versus Table 4 Entry 3, FIG. 3)",EC50 (HIV-1 (IIIB)) [µM]
,,,,"COC1=NO[C@@]2(CC[C@H](C)N3C[C@H]2n2cc(C(=O)NCc4ccc(F)cc4F)c(=O)c(OCOC(=O)OCCOP(=O)(O)O)c2C3=O)C1 [Compound 3, (((3′S,5S,7′R)-10′-((2,4-difluorobenzyl)carbamoyl)-3-methoxy-3′-methyl-1′,11′-dioxo-1′,4′,5′,11′-tetrahydro-3′H,4H,7′H-spiro[isoxazole-5,6′-[2,7]methanopyrido[1,2-a][1,4]diazonin]-12′-yl)oxy)methyl (2-(phosphonooxy)ethyl) carbonate]",6650,13,increased,0.00046
increased,3980 ± 762,80.8 ± 4.9,70.3 ± 1.8,"CC1=NO[C@@]2(CC[C@H](C)N3C[C@H]2n2cc(C(=O)NCc4ccc(F)cc4F)c(=O)c(O)c2C3=O)C1 [Intermediate B, (3′S,5S,7′R)—N-(2,4-difluorobenzyl)-12′-hydroxy-3,3′-dimethyl-1′,11′-dioxo-1′,4′,5′,11′-tetrahydro-3′H,4H,7′H-spiro[isoxazole-5,6′-[2,7]methanopyrido[1,2-a][1,4]diazonine]-10′-carboxamide]",2,,,
increased,2300 ± 171,62 ± 3.5,82.3 ± 13.4,"COC1=NO[C@@]2(CC[C@H](C)N3C[C@H]2n2cc(C(=O)NCc4ccc(F)cc4F)c(=O)c(O)c2C3=O)C1 [Intermediate C, (3′S,5S,7′R)—N-(2,4-difluorobenzyl)-12′-hydroxy-3-methoxy-3′-methyl-1′,11′-dioxo-1′,4′,5′,11′-tetrahydro-3′H,4H,7′H-spiro[isoxazole-5,6′-[2,7]methanopyrido[1,2-a][1,4]diazonine]-10′-carboxamide]",,,,
